Measured values taken from PubChem BioAssay (NCI).
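Briefly, cells in 96-well plates were exposed to five compound concentrations for 48 h, and endpoints were estimated by linear interpolation. TGI is the concentration that stops growth completely.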

What was measured:
Assay in all cases: NCI anticancer screen, dose series, 48 h
SN12C renal = test system: SN12C renal
RPMI-8226 leukemia = test system: RPMI-8226 leukemia
SW-620 colon = test system: SW-620 colon
SK-MEL-2 melanoma = test system: SK-MEL-2 melanoma
MALME-3M melanoma = test system: MALME-3M melanoma
HT29 colon = test system: HT29 colon
OVCAR-4 ovarian = test system: OVCAR-4 ovarian
NCI-H23 lung = test system: NCI-H23 lung
IGROV1 ovarian = test system: IGROV1 ovarian
PC-3 prostate = test system: PC-3 prostate
TK-10 renal = test system: TK-10 renal
SR leukemia = test system: SR leukemia
HCC-2998 colon = test system: HCC-2998 colon
SF-268 CNS = test system: SF-268 CNS
KM12 colon = test system: KM12 colon
NCI/ADR-RES ovarian = test system: NCI/ADR-RES ovarian
RXF 393 renal = test system: RXF 393 renal
HCT-15 colon = test system: HCT-15 colon
A498 renal = test system: A498 renal
HS 578T breast = test system: HS 578T breast
OVCAR-3 ovarian = test system: OVCAR-3 ovarian
OVCAR-8 ovarian = test system: OVCAR-8 ovarian
MDA-MB-435 = test system: MDA-MB-435
HOP-92 NSCLC = test system: HOP-92 NSCLC
OVCAR-5 ovarian = test system: OVCAR-5 ovarian
NCI-H226 lung = test system: NCI-H226 lung
DU-145 prostate = test system: DU-145 prostate
HCT-116 colon = test system: HCT-116 colon
MDA-MB-231 breast = test system: MDA-MB-231 breast
A549 NSCLC = test system: A549 NSCLC
SF-539 CNS = test system: SF-539 CNS
UACC-62 melanoma = test system: UACC-62 melanoma
SF-295 CNS = test system: SF-295 CNS
U251 CNS = test system: U251 CNS
MDA-N = test system: MDA-N
T-47D breast = test system: T-47D breast
MCF7 breast = test system: MCF7 breast
CCRF-CEM leukemia = test system: CCRF-CEM leukemia
LOX IMVI melanoma = test system: LOX IMVI melanoma
SNB-19 CNS = test system: SNB-19 CNS
SK-MEL-5 melanoma = test system: SK-MEL-5 melanoma
HOP-62 NSCLC = test system: HOP-62 NSCLC
BT-549 breast = test system: BT-549 breast
SK-MEL-28 melanoma = test system: SK-MEL-28 melanoma
UO-31 renal = test system: UO-31 renal
UACC-257 melanoma = test system: UACC-257 melanoma
CAKI-1 renal = test system: CAKI-1 renal
COLO 205 colon = test system: COLO 205 colon
SK-OV-3 ovarian = test system: SK-OV-3 ovarian
EKVX NSCLC = test system: EKVX NSCLC
MOLT-4 leukemia = test system: MOLT-4 leukemia
K-562 leukemia = test system: K-562 leukemia
SNB-75 CNS = test system: SNB-75 CNS
786-0 renal = test system: 786-0 renal
NCI-H460 lung = test system: NCI-H460 lung
M14 melanoma = test system: M14 melanoma
ACHN renal = test system: ACHN renal
NCI-H522 lung = test system: NCI-H522 lung
HL-60(TB) leukemia = test system: HL-60(TB) leukemia

CCCC1NC(=O)C(CC(C)C)NC(=O)c2cccc(n2)C(=O)NC(CC(C)C)C(=O)NC(CCC)C(=O)NC(C(=O)OC)CCCCNC1=O (configuration not stated)
TGI (SN12C renal): > 100 µM | TGI (RPMI-8226 leukemia): 32 µM | TGI (SW-620 colon): > 100 µM | TGI (SK-MEL-2 melanoma): > 100 µM | TGI (MALME-3M melanoma): 62.8 µM | TGI (HT29 colon): 94.5 µM | TGI (OVCAR-4 ovarian): > 100 µM | TGI (NCI-H23 lung): > 100 µM | TGI (IGROV1 ovarian): > 100 µM | TGI (PC-3 prostate): 91.3 µM | TGI (TK-10 renal): > 100 µM | TGI (SR leukemia): 65.6 µM | TGI (HCC-2998 colon): 41.7 µM | TGI (SF-268 CNS): > 100 µM | TGI (KM12 colon): 59.3 µM | TGI (NCI/ADR-RES ovarian): > 100 µM | TGI (RXF 393 renal): > 100 µM | TGI (HCT-15 colon): > 100 µM | TGI (A498 renal): > 100 µM | TGI (HS 578T breast): > 100 µM | TGI (OVCAR-3 ovarian): > 100 µM | TGI (OVCAR-8 ovarian): > 100 µM | TGI (MDA-MB-435): > 100 µM | TGI (HOP-92 NSCLC): 65.9 µM | TGI (OVCAR-5 ovarian): > 100 µM | TGI (NCI-H226 lung): 71.4 µM | TGI (DU-145 prostate): > 100 µM | TGI (HCT-116 colon): > 100 µM | TGI (MDA-MB-231 breast): 48.9 µM | TGI (A549 NSCLC): > 100 µM | TGI (SF-539 CNS): 45.1 µM | TGI (UACC-62 melanoma): 51.5 µM | TGI (SF-295 CNS): > 100 µM | TGI (U251 CNS): > 100 µM | TGI (MDA-N): > 100 µM | TGI (T-47D breast): > 100 µM | TGI (MCF7 breast): > 100 µM | TGI (CCRF-CEM leukemia): 36.6 µM | TGI (LOX IMVI melanoma): 44.4 µM | TGI (SNB-19 CNS): > 100 µM | TGI (SK-MEL-5 melanoma): > 100 µM | TGI (HOP-62 NSCLC): > 100 µM | TGI (BT-549 breast): 76 µM | TGI (SK-MEL-28 melanoma): 78.9 µM | TGI (UO-31 renal): > 100 µM | TGI (UACC-257 melanoma): > 100 µM | TGI (CAKI-1 renal): > 100 µM | TGI (COLO 205 colon): > 100 µM | TGI (SK-OV-3 ovarian): 91.5 µM | TGI (EKVX NSCLC): 90.9 µM | TGI (MOLT-4 leukemia): 44.8 µM | TGI (K-562 leukemia): 53.7 µM | TGI (SNB-75 CNS): 57.7 µM | TGI (786-0 renal): > 100 µM | TGI (NCI-H460 lung): > 100 µM | TGI (M14 melanoma): > 100 µM

Clc1ccc(-c2nn3c(CCCCCCCCc4nnc5sc(-c6ccc(Cl)cc6)nn45)nnc3s2)cc1
TGI (SN12C renal): > 63.1 µM | TGI (RPMI-8226 leukemia): 72.2 µM | TGI (SW-620 colon): > 100 µM | TGI (SK-MEL-2 melanoma): > 70.5 µM | TGI (MALME-3M melanoma): > 90.4 µM | TGI (HT29 colon): 30.6 µM | TGI (OVCAR-4 ovarian): > 64.6 µM | TGI (NCI-H23 lung): > 92.6 µM | TGI (IGROV1 ovarian): > 100 µM | TGI (ACHN renal): > 100 µM | TGI (PC-3 prostate): 69.7 µM | TGI (TK-10 renal): > 100 µM | TGI (SR leukemia): > 74.3 µM | TGI (HCC-2998 colon): > 100 µM | TGI (SF-268 CNS): > 100 µM | TGI (KM12 colon): 61.3 µM | TGI (NCI/ADR-RES ovarian): > 87.2 µM | TGI (RXF 393 renal): > 62.4 µM | TGI (HCT-15 colon): > 100 µM | TGI (A498 renal): > 85.9 µM | TGI (HS 578T breast): > 100 µM | TGI (OVCAR-3 ovarian): 59 µM | TGI (OVCAR-8 ovarian): > 94.8 µM | TGI (MDA-MB-435): > 88 µM | TGI (HOP-92 NSCLC): > 100 µM | TGI (OVCAR-5 ovarian): > 100 µM | TGI (NCI-H226 lung): > 100 µM | TGI (DU-145 prostate): > 61.4 µM | TGI (HCT-116 colon): 75 µM | TGI (MDA-MB-231 breast): > 100 µM | TGI (A549 NSCLC): > 64.5 µM | TGI (SF-539 CNS): 52.6 µM | TGI (UACC-62 melanoma): > 100 µM | TGI (SF-295 CNS): 46.6 µM | TGI (U251 CNS): 39.8 µM | TGI (MDA-N): > 94.7 µM | TGI (T-47D breast): 34 µM | TGI (MCF7 breast): > 73.3 µM | TGI (CCRF-CEM leukemia): 60.3 µM | TGI (LOX IMVI melanoma): 24.5 µM | TGI (SNB-19 CNS): > 87.6 µM | TGI (SK-MEL-5 melanoma): 60.3 µM | TGI (HOP-62 NSCLC): > 83.2 µM | TGI (BT-549 breast): > 79.5 µM | TGI (SK-MEL-28 melanoma): > 79.7 µM | TGI (NCI-H522 lung): 28.8 µM | TGI (UO-31 renal): 29.4 µM | TGI (UACC-257 melanoma): > 95.2 µM | TGI (CAKI-1 renal): 46.1 µM | TGI (COLO 205 colon): > 100 µM | TGI (SK-OV-3 ovarian): > 90.4 µM | TGI (EKVX NSCLC): > 83 µM | TGI (MOLT-4 leukemia): 33.2 µM | TGI (K-562 leukemia): > 100 µM | TGI (SNB-75 CNS): 75.3 µM | TGI (786-0 renal): 60 µM | TGI (NCI-H460 lung): > 100 µM | TGI (M14 melanoma): 67.5 µM

CCOC(=O)c1cc2cc(N(C(C)=O)C(C)=O)ccc2s1
TGI (SN12C renal): 71.2 µM | TGI (RPMI-8226 leukemia): 45.3 µM | TGI (SW-620 colon): > 100 µM | TGI (SK-MEL-2 melanoma): 51.6 µM | TGI (MALME-3M melanoma): 46.1 µM | TGI (HT29 colon): 67.9 µM | TGI (OVCAR-4 ovarian): > 100 µM | TGI (NCI-H23 lung): > 100 µM | TGI (IGROV1 ovarian): > 100 µM | TGI (ACHN renal): 62.3 µM | TGI (PC-3 prostate): 46.2 µM | TGI (TK-10 renal): > 100 µM | TGI (HCC-2998 colon): > 100 µM | TGI (SF-268 CNS): 80.6 µM | TGI (KM12 colon): > 100 µM | TGI (NCI/ADR-RES ovarian): > 100 µM | TGI (RXF 393 renal): 42.7 µM | TGI (HCT-15 colon): > 100 µM | TGI (A498 renal): 35.1 µM | TGI (HS 578T breast): 37.6 µM | TGI (HL-60(TB) leukemia): 39.2 µM | TGI (OVCAR-3 ovarian): > 100 µM | TGI (OVCAR-8 ovarian): 93.2 µM | TGI (MDA-MB-435): > 100 µM | TGI (HOP-92 NSCLC): > 100 µM | TGI (OVCAR-5 ovarian): 73.8 µM | TGI (NCI-H226 lung): 47.8 µM | TGI (DU-145 prostate): > 100 µM | TGI (HCT-116 colon): > 100 µM | TGI (MDA-MB-231 breast): 58.7 µM | TGI (A549 NSCLC): > 100 µM | TGI (SF-539 CNS): 92.3 µM | TGI (UACC-62 melanoma): > 100 µM | TGI (SF-295 CNS): > 100 µM | TGI (U251 CNS): 59.6 µM | TGI (MDA-N): > 100 µM | TGI (T-47D breast): 81.3 µM | TGI (MCF7 breast): > 100 µM | TGI (CCRF-CEM leukemia): > 100 µM | TGI (LOX IMVI melanoma): > 100 µM | TGI (SNB-19 CNS): > 100 µM | TGI (SK-MEL-5 melanoma): 65 µM | TGI (HOP-62 NSCLC): > 100 µM | TGI (BT-549 breast): 91.5 µM | TGI (SK-MEL-28 melanoma): > 100 µM | TGI (NCI-H522 lung): 55.3 µM | TGI (UO-31 renal): > 100 µM | TGI (UACC-257 melanoma): > 100 µM | TGI (CAKI-1 renal): > 100 µM | TGI (COLO 205 colon): > 100 µM | TGI (SK-OV-3 ovarian): > 100 µM | TGI (EKVX NSCLC): 55.9 µM | TGI (MOLT-4 leukemia): 51 µM | TGI (K-562 leukemia): 87 µM | TGI (SNB-75 CNS): 39.9 µM | TGI (786-0 renal): > 100 µM | TGI (NCI-H460 lung): > 100 µM | TGI (M14 melanoma): > 100 µM
